What all share (assay type): cell-based
In one assay the test system is Mino cells. Briefly: Antiproliferative effect, MTS cell viability assay, Mino cells. The following applies: Homo sapiens, MINO, Mino mantle cell lymphoma cells; read-out: IC50 (anti-proliferation) Mino cells. The method, boiled down: (§1)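 MTS read-out, A490 of formazan from metabolically active cells; compound 0–10 μM (0, 0.001, 0.01, 0.1, 1, 10 μM), 72 h exposure.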
On the technique in general: Tetrazolium dyes change colour on reduction, which living cells bring about.

Another assay relates to JeKo-1 cells. Briefly: Antiproliferative effect, MTS cell viability assay, JeKo-1 cells. The following applies: Homo sapiens; JeKo-1 mantle cell lymphoma cells; read-out: IC50 (anti-proliferation) JeKO-1 cells. The method, boiled down: as §1
A further assay concerns the target BTK (Homo sapiens, UniProt Q06187). Put plainly: BTK degradation, DC50 and Dmax of Table 1 (cell line not given). Also on record: endogenous in cells. The conditions noted are these: for DC50: concentration giving 50% reduction of BTK expression level.

Structures are written as SMILES.

Chain of BTK (Q06187 whole entry): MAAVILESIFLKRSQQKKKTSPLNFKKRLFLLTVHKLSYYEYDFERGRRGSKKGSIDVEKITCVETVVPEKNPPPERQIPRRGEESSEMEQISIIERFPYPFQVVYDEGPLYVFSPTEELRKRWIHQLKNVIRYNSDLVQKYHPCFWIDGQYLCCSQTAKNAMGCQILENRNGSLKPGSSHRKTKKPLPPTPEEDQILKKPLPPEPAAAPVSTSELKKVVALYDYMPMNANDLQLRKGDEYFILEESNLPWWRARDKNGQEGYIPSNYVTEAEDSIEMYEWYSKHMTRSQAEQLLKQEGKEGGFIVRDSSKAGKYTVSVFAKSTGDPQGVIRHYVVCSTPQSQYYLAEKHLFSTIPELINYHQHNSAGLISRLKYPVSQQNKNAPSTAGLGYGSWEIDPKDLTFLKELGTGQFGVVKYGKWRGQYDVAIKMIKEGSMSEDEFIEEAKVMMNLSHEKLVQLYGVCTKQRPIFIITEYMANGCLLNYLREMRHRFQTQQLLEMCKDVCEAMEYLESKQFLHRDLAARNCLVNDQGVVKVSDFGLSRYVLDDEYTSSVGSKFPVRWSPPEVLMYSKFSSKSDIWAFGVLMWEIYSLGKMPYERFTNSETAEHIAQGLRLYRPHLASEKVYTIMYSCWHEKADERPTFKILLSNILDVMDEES

With `Nc1ncnc2c1c(-c1ccc(Oc3ccccc3)cc1)nn2[C@@H]1CCCN(C2CCN(C(=O)N3CCC(C4CCN(c5ccc6c(c5)CN(C5CCC(=O)NC5=O)C6=O)CC4)CC3)CC2)C1` (stereo partly drawn) [Compound 164, 3-(5-(1′-((R)-3-(4-amino-3-(4-phenoxyphenyl)-1H-pyrazolo[3,4-d]pyrimidin-1-yl)-[1,4′-bipiperidine]-1′-carbonyl)-[4,4′-bipiperidin]-1-yl)-1-oxoisoindolin-2-yl)piperidine-2,6-dione], in the assay with Mino cells, the IC50 lay in the range of 1000 to 10000 nM. The IC50 with JeKo-1 cells was greater than 10000 nM. In addition, on BTK, the Dmax was greater than 75% and the DC50 lay within 10 to 50 nM.
As to `Nc1ncnc2c1c(-c1ccc(Oc3ccccc3)cc1)nn2[C@@H]1CCCN(C2CCN(C(=O)N3CCC(N4CCC(c5ccc6c(c5)C(=O)N(C5CCC(=O)NC5=O)C6=O)CC4)CC3)CC2)C1` (stereo partly drawn) [Compound 165, 5-(1′-((R)-3-(4-amino-3-(4-phenoxyphenyl)-1H-pyrazolo[3,4-d]pyrimidin-1-yl)-[1,4′-bipiperidine]-1′-carbonyl)-[1,4′-bipiperidin]-4-yl)-2-(2,6-dioxopiperidin-3-yl)isoindoline-1,3-dione], the IC50 in the assay with Mino cells is 1000 to 10000 nM; with JeKo-1 cells, greater than 10000 nM. In addition, the Dmax at BTK was greater than 75%. Moreover, at BTK, the DC50 was in the range of 10 to 50 nM.
In the case of `Nc1ncnc2c1c(-c1ccc(Oc3ccccc3)cc1)nn2[C@@H]1CCCN(C2CCN(C(=O)N3CCC(N4CCC(c5ccc6c(c5)CN(C5CCC(=O)NC5=O)C6=O)CC4)CC3)CC2)C1` (stereo partly drawn) [Compound 166, 3-(5-(1′-((R)-3-(4-amino-3-(4-phenoxyphenyl)-1H-pyrazolo[3,4-d]pyrimidin-1-yl)-[1,4′-bipiperidine]-1′-carbonyl)-[1,4′-bipiperidin]-4-yl)-1-oxoisoindolin-2-yl)piperidine-2,6-dione], in the assay with Mino cells, the IC50 lay within 1000 to 10000 nM. The IC50 in the assay with JeKo-1 cells is greater than 10000 nM. Besides, at BTK, the Dmax was greater than 90% and the DC50 fell in the range of 10 to 50 nM.
Taken in the same sequence, the figures for `Nc1ncnc2c1c(-c1ccc(Oc3ccccc3)cc1)nn2[C@@H]1CCCN(C2CCN(C(=O)N3CCC(CC4CCN(c5ccc6c(c5)C(=O)N(C5CCC(=O)NC5=O)C6=O)CC4)CC3)CC2)C1` (stereo partly drawn) [Compound 167, 5-(4-((1-((R)-3-(4-amino-3-(4-phenoxyphenyl)-1H-pyrazolo[3,4-d]pyrimidin-1-yl)-[1,4′-bipiperidine]-1′-carbonyl)piperidin-4-yl)methyl)piperidin-1-yl)-2-(2,6-dioxopiperidin-3-yl)isoindoline-1,3-dione] were 1000 to 10000 nM, 1000 to 10000 nM, greater than 90% and 10 to 50 nM.
On the same counts, the results for `Nc1ncnc2c1c(-c1ccc(Oc3ccccc3)cc1)nn2[C@@H]1CCCN(C2CCN(C(=O)N3CCC(CC4CCN(c5ccc6c(c5)CN(C5CCC(=O)NC5=O)C6=O)CC4)CC3)CC2)C1` (stereo partly drawn) [Compound 168, 3-(5-(4-((1-((R)-3-(4-amino-3-(4-phenoxyphenyl)-1H-pyrazolo[3,4-d]pyrimidin-1-yl)-[1,4′-bipiperidine]-1′-carbonyl)piperidin-4-yl)methyl)piperidin-1-yl)-1-oxoisoindolin-2-yl)piperidine-2,6-dione] are less than 1000 nM, 1000 to 10000 nM, greater than 90% and 10 to 50 nM.
On the same counts, the results for `Nc1ncnc2c1c(-c1ccc(Oc3ccccc3)cc1)nn2[C@@H]1CCCN(C2CCN(C(=O)N3CCC(CN4CCN(c5ccc6c(c5)CN(C5CCC(=O)NC5=O)C6=O)CC4)CC3)CC2)C1` (stereo partly drawn) [Compound 170, 3-(5-(4-((1-((R)-3-(4-amino-3-(4-phenoxyphenyl)-1H-pyrazolo(3,4-d)pyrimidin-1-yl)-(1,4′-bipiperidine)-1′-carbonyl)piperidin-4-yl)methyl)piperazin-1-yl)-1-oxoisoindolin-2-yl)piperidine-2,6-dione] are 1000 to 10000 nM, 1000 to 10000 nM, greater than 90% and 10 to 50 nM.
With `Nc1ncnc2c1c(-c1ccc(Oc3ccccc3)cc1)nn2[C@@H]1CCCN(C2CCN(C(=O)N3CCN(CC4CCN(c5ccc6c(c5)C(=O)N(C5CCC(=O)NC5=O)C6=O)CC4)CC3)CC2)C1` (stereo partly drawn) [Compound 171, 5-(4-((4-((R)-3-(4-amino-3-(4-phenoxyphenyl)-1H-pyrazolo[3,4-d]pyrimidin-1-yl)-[1,4′-bipiperidine]-1′-carbonyl)piperazin-1-yl)methyl)piperidin-1-yl)-2-(2,6-dioxopiperidin-3-yl)isoindoline-1,3-dione], the IC50 in the assay on Mino cells and in the assay on JeKo-1 cells was 1000 to 10000 nM each time. The molecule also yielded a Dmax at BTK greater than 90%. The 50% degradation concentration (DC50) on BTK lay in the range of 10 to 50 nM.
`Nc1ncnc2c1c(-c1ccc(Oc3ccccc3)cc1)nn2[C@@H]1CCCN(C2CCN(C(=O)N3CCN(CC4CCN(c5ccc6c(c5)CN(C5CCC(=O)NC5=O)C6=O)CC4)CC3)CC2)C1` (stereo partly drawn) [Compound 172, 3-(5-(4-((4-((R)-3-(4-amino-3-(4-phenoxyphenyl)-1H-pyrazolo[3,4-d]pyrimidin-1-yl)-[1,4′-bipiperidine]-1′-carbonyl)piperazin-1-yl)methyl)piperidin-1-yl)-1-oxoisoindolin-2-yl)piperidine-2,6-dione]: the IC50 in the assay on Mino cells was 1000 to 10000 nM. Also, the IC50 in the assay on JeKo-1 cells lay in the range of 1000 to 10000 nM. At BTK, this molecule showed a Dmax greater than 90% and a DC50 of 10 to 50 nM.
With `Nc1ncnc2c1c(-c1ccc(Oc3ccccc3)cc1)nn2[C@@H]1CCCN(C2CCN(C(=O)N3CCC(CN4CCC(c5ccc6c(c5)C(=O)N(C5CCC(=O)NC5=O)C6=O)CC4)CC3)CC2)C1` (stereo partly drawn) [Compound 173, 5-(1-((1-((R)-3-(4-amino-3-(4-phenoxyphenyl)-1H-pyrazolo[3,4-d]pyrimidin-1-yl)-[1,4′-bipiperidine]-1′-carbonyl)piperidin-4-yl)methyl)piperidin-4-yl)-2-(2,6-dioxopiperidin-3-yl)isoindoline-1,3-dione], the IC50 in the assay with Mino cells was in the range of 1000 to 10000 nM. The IC50 in the assay on JeKo-1 cells is less than 1000 nM. Besides, on BTK, the Dmax was greater than 90% and the DC50 fell in the range of 10 to 50 nM.
Turning to `Nc1ncnc2c1c(-c1ccc(Oc3ccccc3)cc1)nn2[C@@H]1CCCN(C2CCN(C(=O)N3CCC(CN4CCC(c5ccc6c(c5)CN(C5CCC(=O)NC5=O)C6=O)CC4)CC3)CC2)C1` (stereo partly drawn) [Compound 174, 3-(5-(1-((1-((R)-3-(4-amino-3-(4-phenoxyphenyl)-1H-pyrazolo[3,4-d]pyrimidin-1-yl)-[1,4′-bipiperidine]-1′-carbonyl)piperidin-4-yl)methyl)piperidin-4-yl)-1-oxoisoindolin-2-yl)piperidine-2,6-dione], in the assay on Mino cells, the IC50 lay within 1000 to 10000 nM. Also, the IC50 with JeKo-1 cells lay in the range of 1000 to 10000 nM. On BTK, the Dmax was greater than 90% and the DC50 lay within 10 to 50 nM.
`Nc1ncnc2c1c(-c1ccc(Oc3ccccc3)cc1)nn2[C@@H]1CCCN(C2CCN(C(=O)N3CCN(CCN4CCN(c5ccc6c(c5)C(=O)N(C5CCC(=O)NC5=O)C6=O)CC4)CC3)CC2)C1` (stereo partly drawn) [Compound 175, 5-(4-(2-(4-((R)-3-(4-amino-3-(4-phenoxyphenyl)-1H-pyrazolo[3,4-d]pyrimidin-1-yl)-[1,4′-bipiperidine]-1′-carbonyl)piperazin-1-yl)ethyl)piperazin-1-yl)-2-(2,6-dioxopiperidin-3-yl)isoindoline-1,3-dione]: the IC50 in the assay with Mino cells lay in the range of 1000 to 10000 nM. The IC50 in the assay with JeKo-1 cells was 1000 to 10000 nM. In addition, at BTK, the Dmax was greater than 90% and the DC50 lay within 10 to 50 nM.
Regarding `Nc1ncnc2c1c(-c1ccc(Oc3ccccc3)cc1)nn2[C@@H]1CCCN(C2CCN(C(=O)N3CCN(CCN4CCN(c5ccc6c(c5)CN(C5CCC(=O)NC5=O)C6=O)CC4)CC3)CC2)C1` (stereo partly drawn) [Compound 176, 3-(5-(4-(2-(4-((R)-3-(4-amino-3-(4-phenoxyphenyl)-1H-pyrazolo[3,4-d]pyrimidin-1-yl)-[1,4′-bipiperidine]-1′-carbonyl)piperazin-1-yl)ethyl)piperazin-1-yl)-1-oxoisoindolin-2-yl)piperidine-2,6-dione], in the assay on Mino cells, the IC50 is 1000 to 10000 nM. In addition, the IC50 in the assay on JeKo-1 cells is 1000 to 10000 nM. At BTK, this molecule yielded a Dmax greater than 90% and a DC50 greater than 50 nM.
As to `Nc1ncnc2c1c(-c1ccc(Oc3ccccc3)cc1)nn2[C@@H]1CCCN(C2CCN(C(=O)N3CCN(CCC4CCN(c5ccc6c(c5)C(=O)N(C5CCC(=O)NC5=O)C6=O)CC4)CC3)CC2)C1` (stereo partly drawn) [Compound 177, 5-(4-(2-(4-((R)-3-(4-amino-3-(4-phenoxyphenyl)-1H-pyrazolo[3,4-d]pyrimidin-1-yl)-[1,4′-bipiperidine]-1′-carbonyl)piperazin-1-yl)ethyl)piperidin-1-yl)-2-(2,6-dioxopiperidin-3-yl)isoindoline-1,3-dione], in the assay with Mino cells, the IC50 was 1000 to 10000 nM. In the assay on JeKo-1 cells, the IC50 was 1000 to 10000 nM. On BTK, the Dmax was greater than 90% and the DC50 is 10 to 50 nM.
Take `Nc1ncnc2c1c(-c1ccc(Oc3ccccc3)cc1)nn2[C@@H]1CCCN(C2CCN(C(=O)N3CCN(CCC4CCN(c5ccc6c(c5)CN(C5CCC(=O)NC5=O)C6=O)CC4)CC3)CC2)C1` (stereo partly drawn) [Compound 178, 3-(5-(4-(2-(4-((R)-3-(4-amino-3-(4-phenoxyphenyl)-1H-pyrazolo[3,4-d]pyrimidin-1-yl)-[1,4′-bipiperidine]-1′-carbonyl)piperazin-1-yl)ethyl)piperidin-1-yl)-1-oxoisoindolin-2-yl)piperidine-2,6-dione]: the IC50 with Mino cells was greater than 10000 nM. Besides, the IC50 with JeKo-1 cells was greater than 10000 nM. Further, at BTK, the Dmax is greater than 75% and the DC50 was greater than 50 nM.
Take `Nc1ncnc2c1c(-c1ccc(Oc3ccccc3)cc1)nn2[C@@H]1CCCN(C2CCN(C(=O)N3CCN(CCN4CCC(c5ccc6c(c5)C(=O)N(C5CCC(=O)NC5=O)C6=O)CC4)CC3)CC2)C1` (stereo partly drawn) [Compound 179, 5-(1-(2-(4-((R)-3-(4-amino-3-(4-phenoxyphenyl)-1H-pyrazolo[3,4-d]pyrimidin-1-yl)-[1,4′-bipiperidine]-1′-carbonyl)piperazin-1-yl)ethyl)piperidin-4-yl)-2-(2,6-dioxopiperidin-3-yl)isoindoline-1,3-dione]: the IC50 in the assay on Mino cells was in the range of 1000 to 10000 nM. Moreover, the IC50 in the assay with JeKo-1 cells was greater than 10000 nM. On BTK, this molecule returned a Dmax greater than 75% and a DC50 of 10 to 50 nM.

Broadly, the Dmax is the greatest extent of degradation seen. As a reminder, the DC50 is the concentration giving 50% degradation. A low value points to degradation at low concentration.

For the origin of these results see patent publication US12139492B2 (Endotarget Inc., priority 2021, dated 2024).
